Source: patent publication US10183940B2, “Aryl and heteroaryl-fused tetrahydro-1,4-oxazepine amides as somatostatin receptor subtype 4 (SSTR4) agonists” (Boehringer Ingelheim International GmbH, priority 2014, dated 2019)

Tests used:
[1] = biological target: human Somatostatin 4 receptor (SSTR4) (Homo sapiens (Human), UniProt P31391); experiment: cAMP assay with human Somatostatin 4 receptor; type: cell-based; conditions: hSSTR4 expressing H4 cells, inhibition of Forskolin-stimulated cAMP; read-out: SSTR4 agonism EC50
Procedure: Method description for cAMP assay with human Somatostatin 4 receptor.
The activation of the SSTR4 receptor (Gi coupled) causes an inhibition of intracellular cAMP after stimulation with Forskolin, which can be quantifiable by use of a suitable assay Kit and an adequate plate reader. This technique is used to characterize pharmacological effects of the SSTR4 receptor agonists by use of hSSTR4 expressing H4 cells.
Compounds are dissolved and diluted in DMSO. The final test solution contains […]. The cAMP standard (Lance cAMP 384 Kit; PerkinElmer, Cat #AD0264) is prepared in assay buffer (HBSS with 0.1% BSA, 5 mM HEPES, […], pH 7.4) containing 1% DMSO and the cAMP standard curve is included at least on one plate. Cells are centrifuged and suspended in assay buffer (incl. 1:100 diluted Alexa antibody).
For the assay 5 μl of a cell suspension (approximately 5000 cells/well)—incl. Alexa antibody (diluted 1:100) are added into a 384 well MTP microtitre plate excepting one row or column (depending on the plate layout), which is reserved for the standard curve. Then 2 μl of compound sample is added as concentration response curve (e.g. 1e-5 M to 6e-10 M), usually in triplicates. Each assay contains incubations with vehicle controls instead of compound as controls for non-inhibited cAMP generation (100% CTL; ‘high values’) and incubations with 1 μM Somatosatin as controls for full inhibition and background (0% CTL; ‘low values’). After approximately 10-15 min incubation time 3 μl Forskolin (dissolved in DMSO, final conc. 15 μM) is added. Then the plates are shaken briefly and incubated for 60 min at room temperature. After 60 min 10 μl of the detection mix is added into all wells followed by an additional incubation period of 1 h. The plates are read in a suitable plate reader.
The analysis of the data is based on the “ratio” of the time-resolved fluorescence measurements of donor and acceptor fluorophore (Ex: 320 nm; Em1: 665 nm; Em2: 615 nm; ratio 665/615). From this ratio, cAMP concentrations are calculated from standard curve and the EC50 is estimated by least square curve fit program.

[2] = Metabolic stability in human liver microsomes; type: in vitro ADME; conditions: pH 7.6; pooled human liver microsomes, 37° C., 1 μM test compound, NADPH; read-out: Half-life t1/2
Procedure: The metabolic stability of the compounds according to the invention may be investigated as follows:
The metabolic degradation of the test compound is assayed at 37° C. with pooled human liver microsomes. The final incubation volume of 100 μl per time point contains TRIS buffer pH 7.6 at room temperature (0.1 M), magnesium chloride (5 mM), microsomal protein (1 mg/mL) and the test compound at a final concentration of 1 μM. Following a short preincubation period at 37° C., the reactions are initiated by addition of beta-nicotinamide adenine dinucleotide phosphate, reduced form (NADPH, 1 mM), and terminated by transferring an aliquot into solvent after different time points. After centrifugation (10000 g, 5 min), an aliquot of the supernatant is assayed by LC-MS/MS for the amount of parent compound. The half-life is determined by the slope of the semi-logarithmic plot of the concentration-time profile.

Chain of human Somatostatin 4 receptor (SSTR4) (P31391 whole entry): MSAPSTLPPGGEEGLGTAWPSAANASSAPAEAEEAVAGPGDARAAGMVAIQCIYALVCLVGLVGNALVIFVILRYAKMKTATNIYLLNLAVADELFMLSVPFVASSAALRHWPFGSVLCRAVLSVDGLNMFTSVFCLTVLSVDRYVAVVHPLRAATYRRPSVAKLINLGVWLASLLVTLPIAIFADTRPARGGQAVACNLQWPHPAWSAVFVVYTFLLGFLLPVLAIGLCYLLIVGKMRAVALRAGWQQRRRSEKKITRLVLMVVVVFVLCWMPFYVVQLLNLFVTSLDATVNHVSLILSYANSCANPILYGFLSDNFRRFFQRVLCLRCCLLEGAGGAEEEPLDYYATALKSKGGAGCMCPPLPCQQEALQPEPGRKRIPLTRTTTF

| Structure (SMILES) | EC50 [1] | half-life at 1 μM [2] |
| --- | --- | --- |
| Cc1cccn2c(C(C)(C)NC(=O)c3cccc4c3OCCNC4)nc(C)c12.Cl [Example 53] | 1.6 nM | 1.2 h |
| Cc1cccn2c(C(C)(C)NC(=O)c3nccc4c3OCCNC4)ccc12 [Example 77] | 22.6 nM | – |
| Cc1cccc2c(C(C)(C)NC(=O)c3ccnc4c3OCCNC4)nn(C)c12 [Example 41] | 18.3 nM | > 2.17 h |
| CC(NC(=O)c1cccc2c1OCCNC2)c1nc2ccccc2[nH]1 (stereo not shown) [Example 2] | 302 nM | – |
| Cn1nc(C(C)(C)NC(=O)c2cccc3c2OCCNC3)c2cccc(C(F)(F)F)c21 [Example 25] | 6.8 nM | – |
| Cc1cc2cccnc2c(C(C)(C)NC(=O)c2cccc3c2OCCNC3)n1 [Example 1] | 58.1 nM | – |
| O=C(NC1(c2nc3ccc(Cl)cc3[nH]2)CC1)c1cccc2c1OCCNC2 [Example 4] | 342 nM | – |
| Cc1cccn2c(C3(NC(=O)c4cccc5c4OCCNC5)CCOCC3)ncc12 [Example 58] | 2480 nM | – |
| Cc1nc(C(C)(C)NC(=O)c2cccc3c2OCCNC3)n2cccc(F)c12 [Example 50] | 2 nM | 1.38 h |
| CC(C)(NC(=O)c1cccc2c1OCCNC2)c1noc2c(Cl)cccc12 [Example 38] | 2.9 nM | 0.583 h |
| Cc1cccn2c(C(C)(C)NC(=O)c3cncc4c3OCCNC4)ncc12 [Example 79] | 31.3 nM | > 2.17 h |
| Cc1cccn2c([C@H](C)NC(=O)c3cccc4c3OCCNC4)ncc12 [Example 60] | 94.4 nM | – |
| CC(C)(COc1cnccc1C(F)(F)F)NC(=O)c1cccc2c1OCCNC2 [Example 14] | 132 nM | – |
| CC(C)(NC(=O)c1cccc2c1OCCNC2)c1ncnc2ccccc12 [Example 46] | 9.2 nM | > 2.17 h |
| CC(C)(NC(=O)c1cccc2c1OCCNC2)c1ncc2ccccn12.Cl [Example 13] | 14.3 nM | > 2.17 h |
| Cc1cccc2c(C(C)(C)NC(=O)c3cccc4c3OCCNC4)ncnc12 [Example 45] | 9.2 nM | 1.83 h |
| Cc1cccn2c(C(C)(C)NC(=O)c3cccc4c3OCCNC4)cnc12 [Example 70] | 11.3 nM | > 2.17 h |
| CC(C)(NC(=O)c1cccc2c1OCCNC2)c1ncnc2c(F)cccc12 [Example 66] | 30 nM | – |
| Cc1cccn2c(C(C)(C)NC(=O)c3nccc4c3OCCNC4)nc(C)c12 [Example 75] | 10.4 nM | > 2.17 h |
| CC(C)(NC(=O)c1cccc2c1OCCNC2)c1nc(C(F)(F)F)c2c(F)cccn12 [Example 63] | 32.3 nM | – |
| Cc1cc2ccccc2c(C(C)(C)NC(=O)c2cccc3c2OCCNC3)n1 [Example 28] | 4.2 nM | 0.5 h |
| CC(C)(NC(=O)c1cccc2c1OCCNC2)c1noc2c(F)cccc12 [Example 34] | 18.2 nM | – |

| Structure (SMILES) | EC50 [1] | half-life at 1 μM [2] |
| --- | --- | --- |
| CC(C)(NC(=O)c1cccc2c1OCCNC2)c1n[nH]c2c(Cl)cccc12 [Example 44] | 1.3 nM | > 2.17 h |
| Cc1cc(F)cn2c(C(C)(C)NC(=O)c3cccc4c3OCCNC4)ncc12 [Example 52] | 8.7 nM | – |
| Cn1nc(C(C)(C)NC(=O)c2cccc3c2OCCNC3)c2c(F)cccc21 [Example 22] | 8 nM | 0.7 h |
| Cn1nc(C(C)(C)NC(=O)c2cccc3c2OCCNC3)c2ccc(F)cc21 [Example 23] | 0.9 nM | 1.12 h |
| Cc1cccn2c(C3(NC(=O)c4cccc5c4OCCNC5)CCOC3)ncc12 (stereo not shown) [Example 57] | 354 nM | – |
| Cc1cc2ccccc2c(C(C)(C)NC(=O)c2ccnc3c2OCCNC3)n1 [Example 30] | 19 nM | – |
| Cc1cccn2c(C(C)(C)NC(=O)c3cccc4c3OCCNC4)nc(C3CC3)c12 [Example 62] | 4 nM | 0.533 h |
| Cn1nc(C(C)(C)NC(=O)c2cncc3c2OCCNC3)c2ccccc21 [Example 21] | 35.5 nM | – |
| Cc1cccn2c(C3(NC(=O)c4nccc5c4OCCNC5)CC3)ncc12 [Example 73] | 39.3 nM | – |
| C[C@H](NC(=O)c1cccc2c1OCCNC2)c1cccc2ccccc12.Cl [Example 9] | 2.8 nM | 0.317 h |
| Cc1cccc2c(C(C)(C)NC(=O)c3cccc4c3OCCNC4)noc12 [Example 32] | 2.8 nM | 0.9 h |
| CC(C)(NC(=O)c1cccc2c1OCCNC2)c1ncc2c(Cl)cccn12 [Example 48] | 1.7 nM | 1.42 h |
| Cc1cccn2c(C(C)(C)NC(=O)c3ccnc4c3OCCNC4)ncc12 [Example 78] | 33.6 nM | > 2.17 h |
| Cc1ncc(C(C)(C)NC(=O)c2cccc3c2OCCNC3)c2ccccc12 [Example 27] | 0.6 nM | > 2.17 h |
| CC(C)(NC(=O)c1ccnc2c1OCCNC2)c1noc2c(F)cccc12 [Example 36] | 380 nM | – |
| O=C(NC1(c2nc3ccc(Cl)cc3[nH]2)CCOC1)c1cccc2c1OCCNC2 (stereo not shown) [Example 5] | 750 nM | – |
| CC(C)(NC(=O)c1cccc2c1OCCNC2)c1nc2ccc(Cl)cc2[nH]1 [Example 3] | 45.1 nM | – |
| Cc1nc2ccccn2c1C(C)(C)NC(=O)c1cccc2c1OCCNC2 [Example 69] | 17.6 nM | – |
| Cc1cccn2c(C(C)(C)NC(=O)c3cccc4c3OCCNC4)ccc12 [Example 71] | 2.9 nM | 0.183 h |
| Cc1cccc2c(C(C)(C)NC(=O)c3cccc4c3OCCNC4)cnn12 [Example 24] | 4.4 nM | 1.83 h |
| CC(C)(NC(=O)c1cccc2c1OCCNC2)c1cccc2cccnc12 [Example 10] | 42.1 nM | – |
| CC(C)(NC(=O)c1cccc2c1OCCNC2)c1cccc2cnccc12 [Example 11] | 423 nM | – |

| Structure (SMILES) | EC50 [1] | half-life at 1 μM [2] |
| --- | --- | --- |
| CC(C)(NC(=O)c1cccc2c1OCCNC2)c1ccc(F)cc1 [Example 16] | 33 nM | – |
| Cc1cccn2c(C(C)(NC(=O)c3cccc4c3OCCNC4)C3CC3)ncc12 (stereo not shown) [Example 55] | 134 nM | – |
| Cc1nc(C(C)(C)NC(=O)c2cccc3c2OCCNC3)c2ccccc2n1 [Example 64] | 22.3 nM | > 2.17 h |
| Cc1cccn2c(C(C)(C)NC(=O)c3cccc4c3OCCNC4)nnc12 [Example 68] | 37.9 nM | – |
| CC(C)(NC(=O)c1cccc2c1OCCNC2)c1cccc2ccccc12 [Example 7] | 1.4 nM | 0.533 h |
| Cc1cccn2c(C3(NC(=O)c4cccc5c4OCCNC5)CC3)ncc12 [Example 49] | 1.5 nM | 1.55 h |
| COc1cccn2c(C(C)(C)NC(=O)c3nccc4c3OCCNC4)ncc12 [Example 74] | 106 nM | – |
| Cc1nc(C(C)(C)NC(=O)c2cccc3c2OCCNC3)c2cccc(F)c2n1 [Example 67] | 75 nM | – |
| Cc1nc(C(C)(C)NC(=O)c2cccc3c2OCCNC3)c2cccc(C)c2n1 [Example 65] | 21.4 nM | – |
| CC(C)(NC(=O)c1cccc2c1OCCNC2)c1cccc2ncccc12 [Example 12] | 98.4 nM | – |
| Cc1cccn2c(C(C)(CC(C)C)NC(=O)c3cccc4c3OCCNC4)ncc12 (stereo not shown) [Example 56] | 1980 nM | – |
| CC(C)(NC(=O)c1cccc2c1OCCNC2)c1ccc(Cl)cc1.Cl [Example 17] | 8.2 nM | 0.233 h |
| Cc1cc2ccccc2c(C(C)(C)NC(=O)c2cncc3c2OCCNC3)n1 [Example 31] | 37 nM | – |
| CC(C)(NC(=O)c1cccc2c1OCCNC2)c1ccc(Cl)c(Cl)c1.Cl [Example 8] | 22.3 nM | 0.0733 h |
| Cc1cccnc1OCC(C)(C)NC(=O)c1cccc2c1OCCNC2 [Example 15] | 28.1 nM | – |
| Cc1cccn2c(C(C)(C)NC(=O)c3nccc4c3OCCNC4)nc(C3CC3)c12 [Example 76] | 145 nM | – |
| CC(C)(NC(=O)c1cncc2c1OCCNC2)c1noc2c(F)cccc12 [Example 37] | 1600 nM | – |
| CC(C)(NC(=O)c1cccc2c1OCCNC2)c1ncc2c(OC(F)(F)F)cccn12 [Example 59] | 30.5 nM | – |
| CC(C)(NC(=O)c1nccc2c1OCCNC2)c1noc2c(F)cccc12 [Example 35] | 350 nM | – |
| Cc1cccn2c(C3(NC(=O)c4cccc5c4OCCNC5)CCC3)ncc12 [Example 54] | 15.2 nM | – |
